Common to all, as to type: functional, cell-based
Test [1] relates to HL-60. As to the kind of experiment: Antiproliferative activity against human HL60 cells after 72 hrs by MTT assay. Conditions: HL-60, 72 h.
The nature of test [2]: Antiproliferative activity against human WM35 cells after 72 hrs by MTT assay. Conditions: WM35, 72 h. Background: Tetrazolium dyes change colour on reduction, which living cells bring about.
For test [3], the system named is A-375. The test can be described thus: Antiproliferative activity against human A375 cells after 72 hrs by MTT assay. As to conditions: A-375, 72 h.
In test [4] the test system is ASPC1. The test can be described thus: Antiproliferative activity against human AsPC1 cells after 72 hrs by MTT assay. Conditions: ASPC1, 72 h.
Test [5] concerns PANC-1. As to the kind of experiment: Antiproliferative activity against human PANC1 cells after 72 hrs by MTT assay. Conditions: PANC-1, 72 h.

The IC50 is the midpoint of a concentration-inhibition curve. Regarding `COc1ccc(C(=O)O[C@H]2[C@H](O[C@@H]3[C@@H](O)[C@H](O[C@H]4C[C@H]5[C@@H]6CC=C7C[C@@H](OC(=O)CCCCCCCNC(=O)CCCC[C@@H]8SC[C@@H]9NC(=O)N[C@@H]98)CC[C@]7(C)[C@H]6CC[C@]5(C)[C@@]4(O)[C@H](C)C(=O)CCC(C)C)OC[C@@H]3O)OC[C@@H](O)[C@@H]2O)cc1`, the IC50 in test [1] turned out to be 0.1 nM; in test [2], 0.2 nM; in test [3], 0.2 nM; in test [4], 0.7 nM; in test [5], 1.1 nM.

For the origin of these results see ChEMBL document CHEMBL1153813, “Synthesis of biotinylated OSW-1” (Bioorg Med Chem Lett, 2009).
